Among the data in publication PMC10648586, “Jasmone Is a Ligand-Selective Allosteric Antagonist of Aryl Hydrocarbon Receptor (AhR)” (International Journal of Molecular Sciences, 2023) are IC50 values, retold here.

The assay has as its target T1, mouse AhR (mAhr) (Mus musculus, UniProt P30561).
T1 construct: cytosolic protein from Hepa1c1c7 cells
T1 sequence (P30561 10-848): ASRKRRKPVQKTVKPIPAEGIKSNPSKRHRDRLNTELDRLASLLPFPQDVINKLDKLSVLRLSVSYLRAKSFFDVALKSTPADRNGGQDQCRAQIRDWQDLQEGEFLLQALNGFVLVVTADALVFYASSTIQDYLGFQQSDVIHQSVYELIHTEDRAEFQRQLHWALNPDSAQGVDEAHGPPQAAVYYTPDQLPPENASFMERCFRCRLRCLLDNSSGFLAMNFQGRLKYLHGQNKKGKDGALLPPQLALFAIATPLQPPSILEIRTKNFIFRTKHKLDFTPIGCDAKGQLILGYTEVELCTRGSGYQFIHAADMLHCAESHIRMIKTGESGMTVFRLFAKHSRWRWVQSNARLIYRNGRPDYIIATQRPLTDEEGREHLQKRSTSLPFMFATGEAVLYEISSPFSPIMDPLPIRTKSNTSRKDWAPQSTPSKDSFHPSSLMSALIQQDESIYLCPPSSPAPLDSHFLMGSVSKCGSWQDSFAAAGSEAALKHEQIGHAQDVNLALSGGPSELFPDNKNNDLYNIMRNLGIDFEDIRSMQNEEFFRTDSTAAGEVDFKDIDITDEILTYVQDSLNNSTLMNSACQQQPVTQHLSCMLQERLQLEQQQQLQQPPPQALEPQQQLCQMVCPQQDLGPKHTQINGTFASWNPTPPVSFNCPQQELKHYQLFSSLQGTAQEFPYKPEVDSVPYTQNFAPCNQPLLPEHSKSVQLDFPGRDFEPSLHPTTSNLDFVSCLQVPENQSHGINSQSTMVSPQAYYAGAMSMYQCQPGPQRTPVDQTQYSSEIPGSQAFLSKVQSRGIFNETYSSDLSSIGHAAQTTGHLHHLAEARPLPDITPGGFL
The assay is described as follows: [3H]-TCDD competitive radioligand binding; partial displacement (about […]) at […].

By IC50 is commonly meant the concentration that gives 50% inhibition. Read a low IC50 as inhibition by little substance. The compound `CC/C=C\CC1=C(C)CCC1=O` [jasmone, 3-methyl-2-[(2Z)-pent-2-en-1-yl]cyclopent-2-en-1-one] displayed an IC50 of more than 609 µM.
